One block for each molecule: values may come before it.
Assays:
adrenocortical carcinoma = details: cited from earlier work
BD140 lines = assay: Caspase 3/7 Glo assay for apoptosis; assay type: cell-based
Method: ACC cell lines SW-13 and H295R were obtained from ATCC and authenticated by STR analysis on Aug. 24, 2012. BD140 lines (A-C) represent distinct subclones established from the tumor of ACC140. BD167 was also established. They are positive for DHEAS expression, confirming adrenocortical origin. SW-13 and the […] were grown in DMEM supplemented with 10% FBS, 1% L-glutamine, 1% […] (ITS), and penicillin-streptomycin. BD140-A, BD140-B and BD167 were grown in RPMI supplemented with 10% FBS, 1% L-glutamine, 1% ITS, and penicillin-streptomycin. H295R was grown in DMEM:F12 supplemented with 2.5% NuSerum, 1% L-glutamine, 1% ITS, and penicillin-streptomycin. All cells lines were grown at 37° C. in a 5% CO2 atmosphere.
ACC cell lines were plated and 24 hours later, 0.5 μM, 1 μM, 2.5 μM, and 5 μM of doxorubicin was added to the cultures. The activity of caspases 3 and 7 was assessed using Caspase 3/7 Glo (Promega, Madison, Wis.) at 8, 24, and 48 hours after drug addition according to manufacturer's instructions. Data was normalized to cells alone, then to vehicle alone and expressed as a percentage of vehicle alone.

SW-13 cells [1] = assay: Caspase 3/7 Glo assay for apoptosis; assay type: cell-based; details: for induction of apoptosis (caspase 3/7 activity), single compound: SW-13 (mutant p53), 8, 16, 24 and 48 hours
Method: (§1) ACC cell lines were plated and 24 hours later, 0.5 μM, 1 μM, 2.5 μM, and 5 μM of doxorubicin was added to the cultures. […] Data was normalized to cells alone, then to vehicle alone and expressed as a percentage of vehicle alone. […] H295R cells were plated at a density of 1750 cells/well in 40 μl of medium and SW-13 was plated at 1250 cells/wells in 40 μl DMEM with 2% FBS. […] Percent caspase 3/7 activity was normalized to cells and to DMSO control. […] […] Doxorubicin (Tocris, Minneapolis, Minn.) was used as a positive control for induction of apoptosis.

H295R cells [2] = assay: Caspase 3/7 Glo assay for apoptosis; assay type: cell-based; details: for induction of apoptosis (caspase 3/7 activity), single compound: H295R (wild type p53), 8, 16, 24 and 48 hours
Method: as §1

SW-13 cells [3] = assay: In vitro drug dose-response, cell viability by CellTiter Glo; assay type: cell-based
Method: (§2) H295R cells were plated at a density of 1750 cells/well in 40 μl of medium and SW-13 cells were plated at 1250 cells/wells in 40 μl DMEM with 2% FBS in white 384-well plates and allowed to attach for 24 hours. […] Cell viability was normalized to cells alone and DMSO controls. […].
(§3) Dose response curves and IC50 values for cell survival in the presence of the drugs were calculated using Prism software (GraphPad) using the log(inhibitor) vs. response—4 parameter function which fits the following equation: Y=Bottom+(Top-Bottom)/[1+10̂(X−Log IC50)] where X is the logarithm of concentration and Y is the percent cell survival. Y starts at the top and goes to bottom with a sigmoid shape as X increases. All experiments were done at least three technical replicates and values are represented as averages with standard error.

H295R cells [4] = assay: as above; assay type: cell-based
Method: as §2, §3

MDM2 protein = assay: Western blot of MDM2 protein after BI-2536; assay type: cell-based; details: H295R and SW-13; BI-2536 24 hours
Method: 6×10^5 SW-13 and 7.5×10^5 H295R cells were plated in 10 cm^2 dishes in 10 ml of media. […] Cells were lysed with RIPA buffer with protease and phosphatase inhibitors, and the resulting protein lysate quantitated by BCA (Pierce, Thermo Scientific, Pittsburgh, Pa.). Thirty micrograms of protein were loaded onto 4-12% Bis-Tris pre-cast gels (Invitrogen, Carlsbad, Calif.) and allowed to separate at 150V for 1 hour. The gels were then transferred onto PVDF membranes for 7 minutes using the iBLOT western transfer system (Invitrogen, Carlsbad, Calif.) at room temperature. […] The membranes were developed using the SuperSignal West Femto Chemiluminescent Substrate (Pierce, Thermo Scientific, Pittsburgh, Pa.) and were visualized and quantitated with the Bio Spectrum 500 Imaging System (UVP, Cambridge, UK).
The blots were processed as described above for the detection of β-Actin (AbCam, Cambridge, Mass.) in 5% blocking solution which was used as an internal loading control. […] The actin membranes were also detected using the SuperSignal West Femto Chemiluminescent Substrate (Pierce, Thermo Scientific, Pittsburgh, Pa.) and were visualized and quantitated with the Bio Spectrum 500 Imaging System (UVP, Cambridge, UK) and relative amounts of PLK-1, MDM2 and p53 protein are reported relative to β-Actin. […]

TP53 (p53) transcript = assay: RT-qPCR of p53 mRNA levels; assay type: cell-based; details: either of the two cell lines (H295R, SW-13)
Method: (§4) 6×10^5 SW-13 and 7.5×10^5 H295R cells were plated in 10 cm^2 dishes in 10 ml of media. […] Total RNA was extracted 24 hours later using the mirVana miRNA Isolation Kit (Ambion, Inc, Grand Island, N.Y.) as per the manufacturer's protocol.
(§5) Total RNA was reverse transcribed utilizing both random hexamer and oligo-dT primers and the RT^2 First Strand cDNA Synthesis Kit (SABiosciences, Valencia, Calif.). The resulting cDNA was amplified on the iQ5 Real-Time PCR Detection System (Bio-Rad Laboratories, Inc, Hercules, Calif.) using primer sets for TP53 (p53), CDKN1A (p21) and ACTB (β-actin) and RT^2 SYBR Green Master Mix (all from SABiosciences, Valencia, Calif.) and run according to manufacturer's instructions. Melting curve analysis was performed to evaluate primer set specificity. Fold difference relative to […], which was used as the reference gene, was calculated using the Pfaffl method taking into account reaction efficiencies.

CDKN1A (p21) transcript = assay: RT-qPCR of p21 mRNA levels; assay type: cell-based
Method: as §4, §5

SMILES: Clc1ccc(C(c2ccccc2Cl)C(Cl)Cl)cc1 (stereo not shown) [mitotane]
survival of patients whose tumors respond (adrenocortical carcinoma; improved from 14 months): 50 months
response rate (adrenocortical carcinoma; mitotane as a single agent): 23%
tolerability (adrenocortical carcinoma; most patients, severe toxic side effects): poorly tolerated

SMILES: COc1cccc2c1C(=O)c1c(O)c3c(c(O)c1C2=O)C[C@@](O)(C(=O)CO)C[C@@H]3O[C@H]1C[C@H](N)[C@H](O)[C@H](C)O1 [doxorubicin]
induction of caspase 3/7 activity (BD140 lines; 0.5 μM and 1 μM): not seen until 48 hours
induction of caspase 3/7 activity (BD140 lines; 2.5 μM and 5 μM, by 24 hours): moderate induction
time to significant induction of caspase 3/7 activation following doxorubicin exposure (SW-13 cells [1]; SW-13, 0.5-5 μM): ≤ 8 h
caspase 3/7 activation (apoptosis) following doxorubicin exposure (H295R cells [2]; H295R, 0.5-5 μM, 8, 24, 48 hours): delayed

IC50 (SW-13 cells [3]; CellTiter Glo, 96 hours, combination: BI-2536 kept constant at IC25, nutlin-3 serially diluted): 19.8 µM
IC50 (H295R cells [4]; CellTiter Glo, combination: BI-2536 kept constant at IC25, nutlin-3 serially diluted): 12.8 µM
SMILES: COc1ccc(C2=N[C@@H](c3ccc(Cl)cc3)[C@@H](c3ccc(Cl)cc3)N2C(=O)N2CCNC(=O)C2)c(OC(C)C)c1 [nutlin-3]
induction of apoptosis (caspase 3/7 activity), single compound (SW-13 cells [1]): small increase in apoptosis
induction of apoptosis (caspase 3/7 activity), single compound (H295R cells [2]): restored the apoptotic response
cell viability (in words) (SW-13 cells [3]): decreased
cell viability (in words) (H295R cells [4]): decreased

SMILES: CC[C@@H]1C(=O)N(C)c2cnc(Nc3ccc(C(=O)NC4CCN(C)CC4)cc3OC)nc2N1C1CCCC1 [BI-2536]
time of maximum induction of apoptosis (SW-13 cells [1]; SW-13): 48 h
induction of apoptosis (caspase 3/7 activity), single compound (SW-13 cells [1]): robust induction of apoptosis
induction of apoptosis (caspase 3/7 activity), single compound (H295R cells [2]): robust induction of apoptosis
levels of the MDM2 protein (MDM2 protein): does not affect
IC10 (cell viability) (SW-13 cells [3]): 0.0222 µM
IC10 (cell viability) (H295R cells [4]): 0.00565 µM
levels of p53 transcript (TP53 (p53) transcript): did not significantly affect
transcription of CDKN1A (p21) (CDKN1A (p21) transcript; H295R, wild type p53): general trend of increased transcription
amount of CDKN1A message (CDKN1A (p21) transcript; SW-13, mutant p53): reduced

From patent US20160038498A1, “METHODS FOR THE TREATMENT OF CANCER” (The Translational Genomics Research Institute, priority 2013, published 2016)
